The values that follow come from patent US6479488B1, “Tetrahydroquinoline derivatives as EAA antagonists” (Glaxo Wellcome SpA, priority 1996, dated 2002).

The test system of test [1] is generalized seizures induced by an intracerebroventicular injection of NMDA. The test is described as follows: Inhibition of NMDA induced convulsions in the mouse (procedure of Chiamulera et al.). The format is in vivo. As to conditions: mice, iv, 0.1 mg/kg dose, NMDA icv induced generalized seizures. On the procedure:
The ability of compounds of the invention to inhibit NMDA induced convulsions in the mouse was determined using the procedure of Chiamulera C et al. Psychopharmacology 1990, 102, 551-552. In this test the ability of the compound when administered iv to inhibit the generalized seizures induced by an intracerebroventicular injection of NMDA in mice was examined at 0.1 mg/kgdose.
The results as percent (%) of inhibition at 0.1 mg/kg dose for representative compounds are given below: […]

In test [2] the target is T1, strychnine insensitive glycine binding site located on the NMDA receptor complex (Rattus norvegicus, UniProt P35439).
T1 construct: from tissue
The experiment in a line: Affinity for strychnine insensitive glycine binding site (procedure of Kishimoto et al.). As to the method:
The potent and selective action of the compound of the invention at the strychnine-insensitive glycine binding site present on the NMDA receptor complex may be readily determined using conventional test procedures. Thus the ability to bind at the strychnine insensitive glycine binding site was determined using the procedure of Kishimoto H et al. J Neurochem 1981, 37 1015-1024. The selectivity of the action of compounds of the invention for the strychnine insensitive glycine site was confirmed in studies at other ionotropic known excitatory amino acid receptors.
The affinity of a compound of the invention for strychnine insensitive glycine binding site located on the NMDA receptor complex was determined using the procedure of Kishimoto H. et al J. Neurochem 1981, 37, 1015-1024.

SMILES strings stand for the structures.

As for `NC(=O)C=Cc1ccc(NC(=O)C=C2CC(C(=O)O)Nc3cc(Cl)cc(Cl)c32)cc1` (racemic) [Example 3, (+/−(E,E)-4-[4-(2-Carbamoyl-vinyl)-phenylcarbamoylmethylene]-5,7-dichloro-1,2,3,4-tetrahydro-quinoline-2-carboxylic Acid], the “% of inhibition” value in test [1] was determined as 40%. This compound gave a Ki in test [2] of 7.94 nM.

In turn, `O=C(C=C1CC(C(=O)O)Nc2cc(Cl)cc(Cl)c21)Nc1ccc(OCCN2CCOCC2)cc1` (racemic) [Example 4, (+/−)(E)-5,7-Dichloro-4-[4-(2-morpholin-4-yl-ethoxy)-phenylcarbamoylmethylene]-1,2,3,4-tetrahydro-guinoline-2-carboxylic Acid] showed a Ki in test [2] of 63.1 nM.

Turning to `N#CCc1ccc(NC(=O)/C=C2\CC(C(=O)O)Nc3cc(Cl)cc(Cl)c32)cc1` (racemic) [Example 5, (+/−)(E)-5,7-Dichloro-4-(4-cyanomethyl-phenylcarbamoylmethylene)-1,2,3,4-tetrahydro-quinoline-2-carboxylic Acid], in test [2], the affinity, expressed as Ki, was 7.94 nM.

Turning to `CC(C)C(=O)NCCOc1ccc(NC(=O)C=C2CC(C(=O)O)Nc3cc(Cl)cc(Cl)c32)cc1` (racemic) [Example 6, (+/−)(E)-5,7-Dichloro-4-[4-(2-isobutyrylamino-ethoxy)-phenylcarbamoylmethylene]-1,2,3,4-tetrahydro-guinoline-2-carboxylic Acid], the “% of inhibition” value in test [1] is listed as 40%. The affinity in test [2] corresponds to a Ki of 15.8 nM.

As for `COCC(=O)Nc1ccc(NC(=O)C=C2CC(C(=O)O)Nc3cc(Cl)cc(Cl)c32)cc1` (racemic) [Example 7, (+/−)(E)-5,7-Dichloro-4-[4-(2-methoxy-acetylamino)-phenylcarbamoylmethylene-1,2,3,4-tetrahydro-quinoline-2-carboxylic Acid], in test [1], the “% of inhibition” value is reported as 40%. In test [2], this compound had a Ki of 6.31 nM.

As for `CC(C)C(=O)NCC(=O)Nc1ccc(NC(=O)/C=C2\CC(C(=O)[O-])Nc3cc(Cl)cc(Cl)c32)cc1.[Na+]` (racemic) [Example 9, (+/−)(E)-5,7-Dichloro-4-(4-isobutyrylaminomethylcarbonylamino-phenylcarbamoylmethylene)-1,2,3,4-tetrahydro-quinoline-2-carboxylic Acid Sodium Salt], in test [1], the “% of inhibition” value stood at 40%. This compound showed a Ki in test [2] of 7.94 nM.
